The source of these data is ChEMBL document CHEMBL1201862, “PubChem BioAssay data set” (2004).

Among the test systems are CAKI-1; COLO 205; HCC 2998; HOP-62; IGROV-1; KM12; NCI-H23; NCI-H460; NCI-H522; OVCAR-3; OVCAR-5; OVCAR-8; RPMI-8226; SF-268; SK-MEL-28; SK-OV-3; SNB-75; UACC-257; UO-31; A549.
Experiment in all cases: inhibition of tumour cell growth, NCI panel, 48 h

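Method: 48-hour compound exposure of cells in 96-well plates, five concentrations, linear interpolation of endpoints. GI50 is the concentration that inhibits growth by half.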 The source made the active and inactive calls. No stated cut-off is given here; in the data, active = GI50 up to about 1.1 µM and inactive = higher.

With `CCCCNC(=O)C1C(=O)N(CCCC)C(=O)/C1=N\N` (stereo unspecified), the GI50 with CAKI-1, in the test with COLO 205, in the test on HCC 2998, in the test on HOP-62, in the test with IGROV-1 and with KM12 was > 100 µM (inactive) throughout. Moreover, the GI50 in the test with NCI-H23, with NCI-H460, with NCI-H522, with OVCAR-3, in the test with OVCAR-5 and in the test with OVCAR-8 was > 100 µM (inactive) throughout. In addition, the GI50 with RPMI-8226, in the test on SF-268, in the test with SK-MEL-28, in the test on SK-OV-3, with SNB-75 and in the test with UACC-257 was > 100 µM (inactive) in each case. Besides, the GI50 with UO-31 is > 100 µM (inactive).
On to `CCC(C(=O)O)c1ccc(OCc2ccccc2)cc1` (stereo unspecified), for which the GI50 in the test on A549, in the test with CAKI-1, in the test on COLO 205, in the test on HCC 2998, in the test on HOP-62 and in the test with IGROV-1 was > 100 µM (inactive) in each case. In addition, the GI50 in the test with KM12, in the test on NCI-H23, in the test on NCI-H460, with NCI-H522, in the test with OVCAR-3 and in the test on OVCAR-5 was > 100 µM (inactive) in each case. In addition, the GI50 in the test on RPMI-8226 is > 100 µM (inactive); with SF-268, > 100 µM (inactive); in the test with SK-MEL-28 it was > 100 µM (inactive); in the test with SK-OV-3 it was > 100 µM (inactive); with SNB-75, 70 µM (inactive); with UACC-257, > 100 µM (inactive). For the same molecule, in the test with UO-31, the GI50 is 21.5 µM (inactive).
In the case of `O[C@H]1[C@H](O)[C@@H](O)CN2CC[C@H](O)[C@H]12` [CASTANOSPERMINE], the GI50 is > 100 µM (inactive) in the test with A549; > 100 µM (inactive) in the test with CAKI-1; > 100 µM (inactive) in the test with COLO 205; > 95.5 µM (inactive) in the test with HCC 2998; > 100 µM (inactive) in the test with HOP-62; > 100 µM (inactive) with IGROV-1. In addition, the GI50 in the test on KM12, with NCI-H23, in the test with NCI-H460, in the test on NCI-H522, with OVCAR-3 and in the test on OVCAR-5 was > 100 µM (inactive) each time. Further, the GI50 in the test with OVCAR-8, in the test with RPMI-8226, in the test with SF-268, in the test on SK-MEL-28, in the test on SK-OV-3 and in the test on SNB-75 was > 100 µM (inactive) each time. Moreover, the GI50 in the test on UACC-257 is > 100 µM (inactive); in the test on UO-31 it was > 94.4 µM (inactive).
As to `CN(C)CCNCc1c2ccccc2c(CNCCN(C)C)c2ccccc12`, the GI50 in the test with A549 is 23.1 µM (inactive); in the test on COLO 205 it was 9.53 µM (inactive); in the test on HCC 2998, 10.7 µM (inactive); in the test with HOP-62, 18 µM (inactive); in the test with IGROV-1, 26.6 µM (inactive); with KM12, 39.4 µM (inactive). Moreover, the GI50 with NCI-H23 is 36 µM (inactive); in the test with NCI-H460 it was 27 µM (inactive); in the test with NCI-H522, 31 µM (inactive); in the test on OVCAR-3 it was 37.5 µM (inactive); with OVCAR-5 it was 17.1 µM (inactive); in the test on OVCAR-8, 31.6 µM (inactive). Also, the GI50 with RPMI-8226 was 31 µM (inactive); in the test with SF-268, 27 µM (inactive); in the test on SK-MEL-28, 63.8 µM (inactive); in the test with SK-OV-3, 16.9 µM (inactive); with SNB-75, 43.6 µM (inactive); in the test on UACC-257 it was 18 µM (inactive). For the same molecule, the GI50 with UO-31 was > 100 µM (inactive).
Take `O=C(O)CCC(NC(=O)c1ccc(Nc2nc3ccc(C(F)(F)F)cc3nc2-c2ccccc2)cc1)C(=O)O` (stereo unspecified): the GI50 with A549 was > 100 µM (inactive); in the test with CAKI-1, > 57.8 µM (inactive); in the test with COLO 205 it was > 100 µM (inactive); in the test with HCC 2998, > 100 µM (inactive); with HOP-62, > 100 µM (inactive); in the test with IGROV-1 it was > 100 µM (inactive). Further, the GI50 in the test with KM12, in the test on NCI-H23, with NCI-H460, in the test with NCI-H522, in the test with OVCAR-3 and in the test on OVCAR-5 was > 100 µM (inactive) throughout. Besides, the GI50 with OVCAR-8, in the test with RPMI-8226, in the test with SF-268, with SK-MEL-28, with SK-OV-3 and in the test on SNB-75 was > 100 µM (inactive) throughout. The GI50 in the test on UACC-257 and in the test on UO-31 was > 100 µM (inactive) throughout.
Consider `CCN1CC2(CO)CCC(OC)C34C5CC6C(OC)CC(O)(C5C6OC)C(O)(C(OC)C23)C14` (stereo unspecified), for which the GI50 in the test on A549, in the test with CAKI-1, with COLO 205, with HCC 2998, with HOP-62 and in the test on IGROV-1 was > 375 µM (inactive) in each case. Moreover, the GI50 was > 375 µM (inactive) in the test with KM12; > 375 µM (inactive) in the test on NCI-H23; > 375 µM (inactive) with NCI-H460; > 375 µM (inactive) with NCI-H522; > 174 µM (inactive) with OVCAR-3; > 177 µM (inactive) with OVCAR-5. Further, the GI50 in the test with OVCAR-8 was > 375 µM (inactive); with RPMI-8226 it was > 375 µM (inactive); with SF-268, > 375 µM (inactive); in the test with SK-MEL-28, > 375 µM (inactive); in the test with SK-OV-3, > 375 µM (inactive); in the test with SNB-75, > 362 µM (inactive). The GI50 in the test on UACC-257 and with UO-31 was > 375 µM (inactive) each time.
In the case of `Cn1c(-c2ccccc2)cc(-c2cccs2)c1-c1cccs1`, the GI50 with A549 is > 100 µM (inactive); in the test with CAKI-1 it was > 100 µM (inactive); in the test with COLO 205, 82.6 µM (inactive); in the test with HCC 2998, 49.5 µM (inactive); with HOP-62 it was > 81.3 µM (inactive); in the test with IGROV-1 it was > 100 µM (inactive). Also, the GI50 in the test on KM12 was 22.3 µM (inactive); in the test with NCI-H23 it was 49.3 µM (inactive); in the test on NCI-H460, 71.9 µM (inactive); in the test with NCI-H522, > 64.6 µM (inactive); with OVCAR-3 it was > 100 µM (inactive); in the test with OVCAR-5 it was > 100 µM (inactive). Further, the GI50 with OVCAR-8 is > 100 µM (inactive); in the test with RPMI-8226 it was 73.3 µM (inactive); in the test with SF-268, > 100 µM (inactive); with SK-MEL-28, > 100 µM (inactive); with SK-OV-3 it was > 100 µM (inactive); in the test with SNB-75 it was > 100 µM (inactive). For the same molecule, the GI50 with UACC-257 was > 35.4 µM (inactive); with UO-31, > 100 µM (inactive).
As to `c1ccc(P(CCP(c2ccccn2)c2ccccn2)c2ccccc2)cc1`, the GI50 in the test on A549 was 0.0736 µM (active); in the test with CAKI-1 it was > 90.8 µM (inactive); in the test on COLO 205 it was 0.341 µM (active); in the test with HCC 2998, 3.37 µM (inactive); in the test on HOP-62, 0.0268 µM (active); with IGROV-1, < 0.01 µM (active). For the same molecule, the GI50 in the test on KM12 was 0.286 µM (active); in the test on NCI-H23 it was < 0.01 µM (active); with NCI-H460 it was 0.196 µM (active); in the test with NCI-H522, 0.0314 µM (active); in the test with OVCAR-3, < 0.0172 µM (active); in the test on OVCAR-5, > 75.9 µM (inactive). In addition, the GI50 in the test with OVCAR-8 is 0.108 µM (active); in the test with RPMI-8226 it was 0.0409 µM (active); in the test on SK-MEL-28 it was 64 µM (inactive); with SK-OV-3 it was 48.9 µM (inactive); with SNB-75 it was 0.863 µM (active); in the test with UACC-257 it was < 0.0185 µM (active). In addition, in the test on UO-31, the GI50 is 33.3 µM (inactive).
